Results from patent US20220073532A1, “INHIBITORS OF CGAS ACTIVITY AS THERAPEUTIC AGENTS” (BELLBROOK LABS, LLC, priority 2019, published 2022).
Entries after “also recorded” stand apart in the source; their conditions may differ. Where two headings read alike, the source gives them in different places.

What was measured:
[1] = system: IFNβ expression in THP-1 cells; assay: IFNβ ELISA in THP-1 cells; format: cell-based, human
Method: (§1) IFN induction in human monocyte cell lines: The human monocyte cell line THP-1 gives a robust cGAS/STING-dependent type I IFN response and has been used extensively for studies on the pathway. Typically, cells are stimulated by transfection with dsDNA and gene expression is assessed using an ELISA for IFNβ, a reporter gene assay, and/or cGAS/STING pathway markers such as STING phosphorylation. These assays were validated using the TBK1 inhibitor, BX-795, which acts downstream of cGAS/STING, as a probe; THP-1 Dual cells (Invivogen, San Diego) are used as the reporter cell line for routine compound testing (FIG. 5A). These assays were optimized, including equalizing responses with transfected DNA and cGAMP and comparing responses between undifferentiated cells and cells that have been differentiated to macrophages (which show little difference). […] Stimulation of THP-1 Dual cells with damage-associated molecular pattern molecules (DAMPs) that act through pattern recognition receptors other than cGAS provides another way to confirm the specificity of putative cGAS inhibitors.

[2] = system: NFκB-driven SEAP expression in THP-1 Dual cells; assay: THP-1 Dual NFκB-SEAP reporter assay; format: cell-based, human
Method: as §1

cGAS [3] = molecular target: T1, cGAS (Homo sapiens, UniProt Q8N884); assay: cGAS enzymatic assay (FP/TR-FRET detection of cGAMP); format: biochemical; design: The cGAS assay was used to screen 100,000 compounds with full-length human cGAS; 6xHis; made in house
T1 sequence (Q8N884 whole entry): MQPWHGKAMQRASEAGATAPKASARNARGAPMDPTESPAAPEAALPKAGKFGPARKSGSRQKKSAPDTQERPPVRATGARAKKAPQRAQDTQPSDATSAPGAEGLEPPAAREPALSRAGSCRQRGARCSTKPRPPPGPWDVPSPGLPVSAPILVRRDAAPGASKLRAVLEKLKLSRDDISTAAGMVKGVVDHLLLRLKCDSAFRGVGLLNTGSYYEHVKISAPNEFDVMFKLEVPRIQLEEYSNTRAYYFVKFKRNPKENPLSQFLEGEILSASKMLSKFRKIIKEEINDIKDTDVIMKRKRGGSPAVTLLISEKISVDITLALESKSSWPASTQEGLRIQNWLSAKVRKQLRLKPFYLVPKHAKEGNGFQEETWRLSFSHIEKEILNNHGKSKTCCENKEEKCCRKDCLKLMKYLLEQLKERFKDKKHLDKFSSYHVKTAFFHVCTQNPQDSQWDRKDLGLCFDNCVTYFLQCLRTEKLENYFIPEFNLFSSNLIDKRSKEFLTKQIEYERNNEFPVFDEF
Method: Some exemplary compounds of the disclosure were tested for inhibition of cGAS (30 nM). The results are provided in Table 1 where “A” indicates an IC50 of less than 100 nM, “B” indicates an IC50 of greater than 100 nM and less than 500 nM, “C” indicates an IC50 of greater than 500 nM and less than 1 μM, “D” indicates an IC50 of greater than 1 μM and less than 10 μM, and “E” indicates an IC50 of greater than 10 μM.
A homogenous cGAS enzymatic assay was developed with fluorescence polarization (FP) and time-resolved Forster resonance energy transfer (TR-FRET) readouts (FIG. 2A-2D). The cGAS assay was used to screen 100,000 compounds with full-length human cGAS (FIG. 2E), resulting in the identification of the novel chemotype of the disclosure, two of which are further developed in a structure-driven hit-to-lead study (Table 3, below). The assay performance was robust, as indicated by respective Z and Z′ values of 0.59 and 0.63 in the screen; compounds with polarization values greater than three SDs from the mean were considered hits; a scatterplot from 10 plates (3,200 compounds) is shown in FIG. 2D.
Biochemical and biophysical analysis: Potency and MOA studies, including Mn^2+ sensitivity, are performed using the cGAS enzymatic assay. Dose response experiments are used to determine IC50 values under basal conditions (5 mM MgCl2, 100 μM ATP/GTP), and with the addition of physiological levels of Mn (0.2 mM) using human and mouse cGAS. Ligand optimization is driven by potency with the human enzyme; potency with mouse cGAS informs selection of an appropriate disease model for efficacy studies. Competition with ATP and GTP is assessed by comparing basal IC50 values to those in the presence of saturating ATP or GTP, and subsequently confirmed by measuring velocity vs. substrate at varying ATP or GTP levels. Inhibitor residence times (1/koff) are used as a key parameter for prioritizing compounds and driving SAR, because a longer residence time often results from an allosteric mechanism, and can also correlate with improved cellular activity. The cGAS enzymatic assay is used with the jump dilution method to measure residence times (inhibitor dissociation rates), as described for kinases using the very similar ADP assay. Biophysical methods, including SPR and TSA, are used as orthologous methods for residence time measurements and kd estimates.

[4] = system: interferon-sensitive gene (ISG) expression in THP1-dual cells; assay: ISG mRNA expression by RT-PCR in THP1-dual cells; format: cell-based, human; details: 24 hours, normalized to β-actin
Method: FIG. 6A illustrates activity of IFNβ expression of the compounds of disclosure. FIG. 6B illustrates inhibition of reporter genes from cGAS/STING-driven promoters of compound 28 in THP1-dual cells. FIG. 6C illustrates the ISG mRNA expression of compound 28 in THP1-dual cells. Compound 28 in concentration of 200 μM was evaluated after 24 hours. The results were normalized to β-actin.

[5] = system: IRF3-driven Luc expression in THP-1 Dual cells; assay: THP-1 Dual IRF3-Luc reporter assay; format: cell-based, human; details: for cGAS-dependent cellular activity: human monocyte cell line THP-1; for inhibition of IRF3-dependent Luc expression: THP-1 Dual cells, induced by DNA or cGAMP
Method: as §1

cGAS [6] = molecular target: T1, cGAS; assay: SPR / biophysical binding to cGAS; details: SPR; read-out: Kd determined with SPR
Text: Following confirmation of hits at three concentrations and removal of compounds with visually evident reactivity or metabolic liabilities, non-stoichiometric inhibitors, aggregators, DNA intercalators and redox-active compounds were triaged (FIG. 2E) using established assays. […] Initial SAR based on more than 100 commercially available analogs provided additional confidence that the compounds were bonafide inhibitors, and informed potential scaffold hops and toleration for modifications.
A highly efficient platform for preclinical drug discovery (FIG. 3) was assembled, providing for development of cGAS inhibitors, which is improved by the addition of a powerful computational modeling method and in vivo PK studies (FIG. 3). […]
Biochemical and biophysical analysis: Potency and MOA studies, including Mn^2+ sensitivity, are performed using the cGAS enzymatic assay. […] Competition with ATP and GTP is assessed by comparing basal IC50 values to those in the presence of saturating ATP or GTP, and subsequently confirmed by measuring velocity vs. substrate at varying ATP or GTP levels. […]

THP1 cGAS KO cells = assay: Specificity test in THP-Dual cGAS knockout cells; format: cell-based, human; details: LPS-stimulated, cGAS KO
Text: FIG. 5 includes (A) a schematic showing the THP1 dual-cell reporter system: secreted luciferase reports on IRF3-driven transcription; secreted alkaline phosphatase reports on NFκB-driven transcription, both downstream of cGAS/STING. THP-Dual cGAS knockout cells are used to test for non-specific effects; (B) a plot of the dose response for inhibition of Luc expression by Compound 15; (C) a plot of the dose response for inhibition of Luc expression by the TBK1 inhibitor, BX-795; and (D) a plot of the dose response for inhibition of SEAP expression by Compound 15.
as §1

[7] = cGAS (30 nM), read-out: Inhibition cGAS
[8] = cGAS (30 nM), with Mn^2+, read-out: Inhibition cGAS + Mn^2+

Compound: Cc1nc(N2C[C@@H](CC(=O)Nc3ccncc3)C[C@H]2C(=O)O)c2oc3ccccc3c2n1 [Compound 28, (2S,4R)-1-(2-methylbenzofuro[3,2-d]pyrimidin-4-yl)-4-(2-oxo-2-(pyridin-4-ylamino)ethyl)pyrrolidine-2-carboxylic acid]
- inhibition of IFNβ expression [1]: reproducible inhibition; also recorded: inhibit IFNβ expression
- specificity: DNA- versus cGAMP-stimulated cells [1]: specific for DNA-stimulated cells; also recorded: more potent inhibition of cells stimulated with DNA than those stimulated with cGAMP
- IC50 ([1]; Homo sapiens, read-out: Cellular IFNβ ELISA IC50): 13000 nM
- IC50 ([2]; Homo sapiens, THP1-dual cells, read-out: Cellular NFκB-SEAP IC50): 9000 nM
- IC50 (cGAS [3]; 100 μM ATP/GTP, read-out: Enzymatic FP Std (100 μM ATP/GTP) IC50): 356 nM
- IC50 (cGAS [3]; 1 mM ATP/GTP, read-out: Enzymatic FP Physiological (1 mM ATP/GTP) IC50): 3250 nM
- IC50 (cGAS [3]; [7]): 100 to 500 nM
- ISG expression (fold decrease @ 200 μM) [4]: 2-3×
- IC50 ([5]; Homo sapiens, THP1-dual cells, read-out: Cellular IRF3-Luc IC50): 20000 nM

Compound: CCc1nc(N2CCC[C@H]2C(=O)O)c2oc3ccccc3c2n1 [Compound 1, (2-ethylbenzofuro[3,2-d]pyrimidin-4-yl)-L-proline]
- IC50 (cGAS [3]; 5 mM Mg^2+, 0.2 mM Mn^2+, read-out: IC50 (5 mM Mg^2+, 0.2 mM Mn^2+)): 19000 nM
- IC50 (cGAS [3]; 5 mM Mg^2+, read-out: IC50 (5 mM Mg^2+)): 2600 nM
- IC50 (cGAS [3]; [8]): > 10000 nM
- IC50 (cGAS [3]; [7]): 1000 to 10000 nM
- IC50 (cGAS [3]; read-out: IC50 in the cGAS enzymatic assay): 1260 nM
- Kd (cGAS [6]): 2400 nM

Compound: CCN(CCO)CCCC(C)Nc1ccnc2cc(Cl)ccc12 (stereo not shown) [hydroxychloroquine, reference compound]
- cGAS-dependent cellular activity [5]: not observed

Compound: Cc1nc(N2C[C@@H](Nc3n[nH]cc3C3CC3)C[C@H]2C(=O)O)c2oc3ccccc3c2n1 [Compound 53, (2S,4S)-4-((4-cyclopropyl-1H-pyrazol-3-yl)amino)-1-(2-methylbenzofuro[3,2-d]pyrimidin-4-yl)pyrrolidine-2-carboxylic acid]
- inhibition of IFNβ expression [1]: inhibit IFNβ expression
- IC50 (cGAS [3]; [8]): 1000 to 10000 nM
- IC50 (cGAS [3]; [7]): 100 to 500 nM
- inhibition of IRF3-dependent Luc expression [5]: reproducible inhibition

Compound: Cc1ccc(C(=O)Nc2ccc(S(=O)(=O)O)c3cc(S(=O)(=O)O)cc(S(=O)(=O)O)c23)cc1NC(=O)c1cccc(NC(=O)Nc2cccc(C(=O)Nc3cc(C(=O)Nc4ccc(S(=O)(=O)O)c5cc(S(=O)(=O)O)cc(S(=O)(=O)O)c45)ccc3C)c2)c1 [suramin, reference compound]
- cGAS-dependent cellular activity [5]: not observed

Compound: O=C(NCCCNc1nc(Nc2cccc(NC(=O)N3CCCC3)c2)ncc1I)c1cccs1 [BX-795, reference compound]
- effect on IRF3-driven Luc expression in THP1 cGAS KO cells stimulated with LPS (THP1 cGAS KO cells): inhibited with an expected potency
- inhibition of NFκB-driven SEAP expression ([2]; THP-1 Dual cells): did not inhibit
- inhibition of IRF3-dependent Luc expression [5]: dose-dependent inhibition

Compound: CCN(CC)CCCC(C)Nc1c2ccc(Cl)cc2nc2ccc(OC)cc12 (stereo not shown) [quinacrine, reference compound]
- cGAS-dependent cellular activity [5]: not observed

Compound: Cc1nc(N2C[C@@H](NC(=O)C(C)(C)c3cn[nH]c3)C[C@H]2C(=O)O)c2oc3cc(F)ccc3c2n1 [Compound 57, (2S,4S)-1-(7-fluoro-2-methylbenzofuro[3,2-d]pyrimidin-4-yl)-4-(2-methyl-2-(1H-pyrazol-4-yl)propanamido)pyrrolidine-2-carboxylic acid]
- IC50 (cGAS [3]; [8]): 1000 to 10000 nM
- IC50 (cGAS [3]; [7]): 100 to 500 nM

Compound: Cc1nc(N2C[C@@H](Nc3n[nH]cc3C)C[C@H]2C(=O)O)c2oc3ccccc3c2n1 [Compound 27, (2S,4S)-4-((4-methyl-1H-pyrazol-3-yl)amino)-1-(2-methylbenzofuro[3,2-d]pyrimidin-4-yl)pyrrolidine-2-carboxylic acid]
- IC50 (cGAS [3]; [7]): 100 to 500 nM

Compound: Cc1nc(N2CC[C@H]2C(=O)O)c2oc3ccccc3c2n1 [Compound 68, (S)-1-(2-methylbenzofuro[3,2-d]pyrimidin-4-yl)azetidine-2-carboxylic acid]
- IC50 (cGAS [3]; [8]): 1000 to 10000 nM
- IC50 (cGAS [3]; [7]): 500 to 1000 nM

Compound: Cc1nc(N2C[C@@H](NC(=O)Cc3ccnc(C(N)=O)c3)C[C@H]2C(=O)O)c2oc3ccccc3c2n1 [Compound 50, (2S,4S)-4-(2-(2-carbamoylpyridin-4-yl)acetamido)-1-(2-methylbenzofuro[3,2-d]pyrimidin-4-yl)pyrrolidine-2-carboxylic acid]
- IC50 (cGAS [3]; [7]): 500 to 1000 nM

Compound: Cc1nc(N2[C@H](C(=O)O)C[C@@H]3C[C@@H]32)c2oc3ccccc3c2n1 [Compound 54, (1S,3S,5S)-2-(2-methylbenzofuro[3,2-d]pyrimidin-4-yl)-2-azabicyclo[3.1.0]hexane-3-carboxylic acid]
- IC50 (cGAS [3]; [8]): 1000 to 10000 nM
- IC50 (cGAS [3]; [7]): 1000 to 10000 nM

Compound: COc1nc(N2CCC[C@H]2C(=O)O)c2oc3ccccc3c2n1 [Compound 20, (2-methoxybenzofuro[3,2-d]pyrimidin-4-yl)-L-proline]
- IC50 (cGAS [3]; [8]): 1000 to 10000 nM
- IC50 (cGAS [3]; [7]): 500 to 1000 nM

Compound: Cc1nc(N2C[C@@H](NC(=O)C(C)(C)c3cn[nH]c3)C[C@H]2C(=O)O)c2oc3ccccc3c2n1 [Compound 66, (2S,4S)-4-(2-methyl-2-(1H-pyrazol-4-yl)propanamido)-1-(2-methylbenzofuro[3,2-d]pyrimidin-4-yl)pyrrolidine-2-carboxylic acid]
- IC50 (cGAS [3]; [8]): 1000 to 10000 nM
- IC50 (cGAS [3]; [7]): 100 to 500 nM
